Experimental findings from PubChem BioAssay (NCI) are described below.

The structures appear in SMILES notation. Where “and” joins values, the source holds several entries; their conditions need not be identical. Identical values can stand only once.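 All cell lines were grown in 96-well plates and treated with compound for 48 hours. At the GI50, growth is halved. At the TGI there is no net growth.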 Bounds are passed on as bounds.

Assay in all cases: NCI anticancer screen, dose series, 48 h
Experiment [1] relates to CCRF-CEM leukemia.
Experiment [2] concerns HOP-62 NSCLC.
For experiment [3], the system named is HOP-92 NSCLC.
Experiment [4] concerns M14 melanoma.
Experiment [5] relates to MOLT-4 leukemia.
Experiment [6] concerns OVCAR-5 ovarian.
For experiment [7], the system named is SW-620 colon.
Experiment [8] relates to T-47D breast.
For experiment [9], the system named is UACC-257 melanoma.
Experiment [10] has as its system UO-31 renal.

Regarding `C=CCn1c2c(c3ccccc3c1=O)C(=O)c1ccccc1-2`, the TGI in experiment [1] was > 100 µM; in experiment [2], > 100 µM; in experiment [3], > 100 µM; in [4], > 100 µM; in experiment [5], 16.8 µM; in experiment [6], > 100 µM. For the same molecule, the TGI in experiment [7], in experiment [8], in experiment [9] and in experiment [10] was > 100 µM throughout.

Consider `CN(C)c1cccc2c(S(=O)(=O)N[C@H]3CC[C@H]4[C@@H]5CCc6cc(O)ccc6[C@H]5CC[C@]34C)cccc12`, for which the GI50 in experiment [1] is 3.25 µM; in [2], 3.97 µM; in experiment [3], 1.67 µM; in [4], 3.7 µM; in experiment [5] it was 3.14 µM; in experiment [6] it was 3.09 µM. The GI50 was 2.72 µM in experiment [7], 3.47 µM in [8], 2.51 µM in [9] and 2.02 µM in [10]. Besides, the TGI in experiment [1] was > 100 µM; in experiment [2], 13.9 µM; in [3] it was 7.64 µM; in experiment [4], 18.3 µM; in [5], > 100 µM; in [6] it was 13.2 µM. The TGI in experiment [7] came out at 14 µM; in [8] it was 30.1 µM; in experiment [9] it was 11.5 µM; in experiment [10], 7.51 µM.

Take `COc1cc(C2CC(c3ccc(C)cc3)=NN2C=O)ccc1Oc1ccnc2cc(Cl)ccc12` (configuration not stated): the GI50 in experiment [1] was > 50 µM; in experiment [2], 1.68 µM; in [3] it was 9.1 µM; in [4], 14.2 µM; in experiment [5] it was > 50 µM; in [6], > 50 µM. For the same molecule, the GI50 in [7] is > 50 µM; in experiment [8] it was 2.9 µM; in [9], > 50 µM; in [10] it was > 50 µM. For the same molecule, the TGI in experiment [1] was > 50 µM; in experiment [2], 8.95 µM; in experiment [3], > 50 µM; in experiment [4] it was > 50 µM; in experiment [5], > 50 µM; in experiment [6] it was > 50 µM. Further, the TGI in experiment [7] was > 50 µM; in experiment [8], 23.5 µM; in [9], > 50 µM; in [10] it was > 50 µM.

With `C=C1C(=O)O[C@H]2[C@H]1CC/C(Cn1cc(CNC(=O)Cc3cn(C(=O)c4ccc(Cl)cc4)c4ccc(OC)cc34)nn1)=C\CC[C@@]1(C)O[C@@H]21`, the GI50 in [1] is 0.384 µM; in experiment [2], 3.91 µM; in experiment [3], 1.21 µM; in experiment [4], 1.65 µM; in [5] it was 2 µM; in experiment [6], 1.66 µM. In addition, the GI50 in experiment [7] was 0.932 µM; in experiment [8], 1.73 µM; in [9] it was 1.75 µM; in experiment [10], 1.53 µM. In addition, the TGI in experiment [1] was determined as 2.4 µM; in experiment [2], 15.1 µM; in experiment [3], 2.65 µM; in [4] it was 3.28 µM; in experiment [5] it was 6.16 µM; in experiment [6], 3.34 µM. Moreover, the TGI stood at 2.65 µM in [7], 5.05 µM in [8], 3.39 µM in [9] and 3.05 µM in experiment [10].

As to `O=C1NCc2ccc3c(-c4cccc(Cl)c4)c[nH]c3c21`, the GI50 in [1] was 0.192 µM; in experiment [2], 0.324 µM; in experiment [3], 3.22 µM; in [4], 0.147 µM; in experiment [5], 0.256 µM; in experiment [6], 1.62 µM. Moreover, the GI50 in experiment [7] is 0.195 µM; in [8], 0.277 µM; in experiment [9], > 42.9 µM; in experiment [10], 0.465 µM. The TGI in [1], in experiment [2], in experiment [3], in experiment [4], in experiment [5] and in experiment [6] was > 50 µM in each case. Besides, the TGI in experiment [7] was > 50 µM; in experiment [8] it was > 50 µM; in experiment [9], > 50 µM; in experiment [10] it was > 23.5 µM.

Consider `CNc1ccc2nc3ccc(=[N+](C)C)cc-3sc2c1`, for which the GI50 was 0.432 µM and 0.489 µM in experiment [1]; 2.54 µM and 0.867 µM in experiment [2]; 1.2 µM and 0.347 µM in experiment [4]; 0.637 µM and 0.667 µM in [5]; 2.85 µM and 0.514 µM in experiment [6]; 1.63 µM and 0.424 µM in experiment [7]. Moreover, the GI50 in experiment [8] is 1.86 µM and 0.489 µM; in [9], 0.962 µM and 0.331 µM; in experiment [10], 2.74 µM and 2.2 µM. For the same molecule, the TGI in experiment [1] was 17 µM and > 100 µM; in experiment [2] it was 15.7 µM and 7.92 µM; in experiment [3] it was 29.8 µM and 5.06 µM; in experiment [4], 12 µM and 1.5 µM; in experiment [5], 12.1 µM and 9.36 µM; in [6], 6.86 µM and 4.31 µM. Further, the TGI was 12.5 µM and 10.5 µM in experiment [7]; 8.9 µM and 12.5 µM in experiment [8]; 4.52 µM and 1.91 µM in experiment [9]; 19 µM and 16.3 µM in experiment [10].

Consider `COc1cc(O)c([C@@H]2C[C@H](CCc3ccc(O)cc3)O[C@H](c3ccc(O)cc3)C2)c(O)c1C(=O)/C=C/c1ccc(O)cc1`, for which the GI50 was 2.32 µM in experiment [1]; 2.77 µM in experiment [2]; 2.2 µM in experiment [3]; 3.24 µM in [4]; 1.44 µM in experiment [5]; 3.81 µM in [6]. Besides, the GI50 was 2.24 µM in [7], 2.93 µM in experiment [8], 3.82 µM in [9] and 2.9 µM in [10]. The TGI came to 7.36 µM in experiment [1]; 6.02 µM in experiment [2]; 4.96 µM in [3]; 9.3 µM in [4]; 4.24 µM in [5]; 12.5 µM in experiment [6]. Further, the TGI in experiment [7] was determined as 6.12 µM; in experiment [8] it was 9.77 µM; in experiment [9], 13.2 µM; in experiment [10], 7.96 µM.

Take `COc1ccc(N=C2CSc3nnc(-c4cc(F)c(Cl)cc4Cl)n3N2)cc1`: the GI50 in [1] is 0.674 µM; in [2], 0.458 µM; in experiment [3], 2.83 µM; in experiment [4], 0.572 µM; in [5], 0.486 µM; in [6] it was 1.9 µM. Also, the GI50 in experiment [7] is 0.553 µM; in experiment [8], 4.03 µM; in experiment [9] it was 1.38 µM. Also, the TGI in experiment [1] was > 100 µM; in experiment [2], 2.77 µM; in [3] it was 19.1 µM; in [4], 8.27 µM; in experiment [5] it was 14.9 µM; in [6] it was 4.57 µM. For the same molecule, the TGI is 13.1 µM in experiment [7], 32.7 µM in experiment [8] and 4.16 µM in experiment [9].
